From patent US20240180900A1, “COMPOUNDS AND METHODS FOR THE TARGETED DEGRADATION OF ANDROGEN RECEPTOR” (Arvinas Operations, Inc., priority 2022, published 2024)

Columns and labels:
[1] = molecular target: T1, AR (Homo sapiens, UniProt P10275); assay: AR degradation in castrated mice bearing VCaP xenografts (western blotting); assay type: in vivo, mouse; set-up: from tissue; host or cells: VCaP xenograft tumour tissue from castrated CB17/SCID mice
T1 sequence (P10275 1-920): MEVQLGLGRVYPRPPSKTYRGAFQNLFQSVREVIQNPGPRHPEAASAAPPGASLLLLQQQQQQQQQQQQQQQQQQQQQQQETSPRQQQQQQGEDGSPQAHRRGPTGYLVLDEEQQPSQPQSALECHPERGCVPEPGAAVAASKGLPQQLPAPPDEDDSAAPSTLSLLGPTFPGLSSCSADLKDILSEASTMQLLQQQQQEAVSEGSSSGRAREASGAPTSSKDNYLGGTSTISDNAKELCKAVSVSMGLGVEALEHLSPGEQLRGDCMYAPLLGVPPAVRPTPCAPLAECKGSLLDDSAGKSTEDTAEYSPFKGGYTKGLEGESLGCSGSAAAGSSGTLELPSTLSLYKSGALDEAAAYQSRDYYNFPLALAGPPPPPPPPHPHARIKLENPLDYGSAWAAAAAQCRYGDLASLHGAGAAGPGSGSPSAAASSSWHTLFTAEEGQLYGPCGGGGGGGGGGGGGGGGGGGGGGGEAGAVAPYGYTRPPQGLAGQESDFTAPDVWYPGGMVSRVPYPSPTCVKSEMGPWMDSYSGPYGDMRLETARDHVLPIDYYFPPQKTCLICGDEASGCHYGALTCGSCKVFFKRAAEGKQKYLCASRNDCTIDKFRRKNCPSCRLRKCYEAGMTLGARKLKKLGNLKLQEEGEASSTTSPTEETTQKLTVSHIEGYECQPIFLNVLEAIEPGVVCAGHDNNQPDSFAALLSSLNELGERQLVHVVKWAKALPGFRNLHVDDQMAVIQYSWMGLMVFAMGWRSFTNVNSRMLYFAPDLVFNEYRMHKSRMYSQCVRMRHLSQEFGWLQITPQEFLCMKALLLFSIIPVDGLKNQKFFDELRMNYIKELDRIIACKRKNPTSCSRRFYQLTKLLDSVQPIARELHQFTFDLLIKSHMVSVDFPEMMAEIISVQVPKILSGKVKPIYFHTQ
Description: Tumors were harvested 16 hours post-dose and tumor AR level was established by western blotting. Antibody recognizing human mitochondria specific antibody (Mito.C) was employed as a loading control. The quantitation of AR levels from the western blot is shown (lower panel).
Castration eliminates testosterone produced by the testes. Upon castration, prostate tumor cells implanted in the mouse start to produce testosterone on their own, enabling their growth. The effect of Compound A on AR degradation in vivo was evaluated in castrated mice bearing VCaP xenografts. To recapitulate human CRPC, when the implanted tumors reached a volume of approximately 100 mm^3, the mice were surgically castrated. Three weeks after castration, mice were administered a single PO dose of Compound A at 10, 3, 1, 0.3, 0.1, 0.03, or 0 (vehicle) mg/kg via gavage. Sixteen hours after treatment, the tumor tissues were collected, and lysates were prepared to assess AR expression by western blotting. At Compound A doses of 10, 3, 1, 0.3, 0.1, and 0.03 mg/kg, AR was reduced on average by 96%, 91%, 81%, 73%, -5%, and 14%, respectively (FIG. 11), compared to vehicle control.

[2] = molecular target: T2, AR W742L (Homo sapiens, UniProt P10275, W742L); assay: AR degradation in T-Rex-293 cell line, W742L; assay type: cell-based; conditions: T-Rex-293, ELISA
T2 construct: expressed in transfected cells; host or cells: T-REx-293
Excerpt: FIG. 3 is a graph showing Compound A's ability to degrade clinically relevant mutated forms AR.
To assess the ability of Compound A to degrade variants of the AR, vectors expressing wild-type AR or mutant AR proteins harboring clinically observed mutations in the ligand binding domain (13 with single amino acid changes or 4 with 2 amino acid changes) (Azad A. A., Volik S. V., Wyatt A. W., et al. Androgen receptor gene aberrations in circulating cell-free DNA: biomarkers of therapeutic resistance in castration-resistant prostate cancer. Clin Cancer Res. 2015; 21:2315-2324; Robinson D., Van Allen E. M., Wu Y. M., et al. Integrative clinical genomics of advanced prostate cancer. Cell. 2015; 161:1215-1228; Ledet E. M., Lilly M. B., Sonpavde G., et al. Comprehensive analysis of AR alterations in circulating tumor DNA from patients with advanced prostate cancer. Oncologist.

T2 sequence (P10275 whole entry W742L): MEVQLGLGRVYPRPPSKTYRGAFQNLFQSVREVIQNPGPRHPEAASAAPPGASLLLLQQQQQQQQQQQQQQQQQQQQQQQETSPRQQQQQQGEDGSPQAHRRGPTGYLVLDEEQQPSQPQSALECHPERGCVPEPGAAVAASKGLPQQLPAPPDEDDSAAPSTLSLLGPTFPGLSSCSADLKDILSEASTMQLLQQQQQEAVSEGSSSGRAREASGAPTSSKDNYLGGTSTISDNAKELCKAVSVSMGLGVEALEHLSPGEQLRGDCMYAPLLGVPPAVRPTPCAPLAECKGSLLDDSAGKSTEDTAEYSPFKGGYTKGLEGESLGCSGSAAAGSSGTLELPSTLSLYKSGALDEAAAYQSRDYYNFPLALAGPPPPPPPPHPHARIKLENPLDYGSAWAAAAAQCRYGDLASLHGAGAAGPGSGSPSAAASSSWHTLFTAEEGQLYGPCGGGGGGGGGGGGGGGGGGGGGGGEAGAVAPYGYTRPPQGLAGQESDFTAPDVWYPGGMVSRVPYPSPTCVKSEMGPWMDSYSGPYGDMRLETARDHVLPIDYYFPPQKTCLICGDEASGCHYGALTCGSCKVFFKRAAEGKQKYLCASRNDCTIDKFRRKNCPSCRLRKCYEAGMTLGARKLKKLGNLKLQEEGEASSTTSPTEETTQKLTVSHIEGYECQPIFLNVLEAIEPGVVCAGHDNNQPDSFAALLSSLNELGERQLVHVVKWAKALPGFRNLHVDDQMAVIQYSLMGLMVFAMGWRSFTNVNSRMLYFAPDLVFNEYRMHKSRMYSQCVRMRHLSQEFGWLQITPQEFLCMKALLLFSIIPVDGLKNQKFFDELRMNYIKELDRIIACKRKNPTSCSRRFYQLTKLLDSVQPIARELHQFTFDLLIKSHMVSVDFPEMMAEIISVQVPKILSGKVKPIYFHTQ

Structure (SMILES): COc1cc(O[C@H]2C(C)(C)[C@H](NC(=O)c3ccc(N4CCC(CN5CCN(c6ccc(C(=O)N[C@H]7CCC(=O)NC7=O)c(F)c6)CC5)CC4)cc3)C2(C)C)ccc1C#N [Compound A, 4-(4-((1-(4-(((1R,3R)-3-(4-cyano-3-methoxyphenoxy)-2,2,4,4-tetramethylcyclobutyl)carbamoyl)phenyl)piperidin-4-yl)methyl)piperazin-1-yl)-N—((S)-2,6-dioxopiperidin-3-yl)-2-fluorobenzamide]
- AR reduced on average vs vehicle control ([1]; single PO dose 0.03 mg/kg, 16 hours): 14%
- AR reduced on average vs vehicle control ([1]; single PO dose 0.1 mg/kg, 16 hours): -5%
- AR reduced on average vs vehicle control ([1]; single PO dose 0.3 mg/kg, 16 hours): 73%
- AR reduced on average vs vehicle control ([1]; single PO dose 1 mg/kg, 16 hours): 81%
- AR reduced on average vs vehicle control ([1]; single PO dose 3 mg/kg, 16 hours): 91%
- AR reduced on average vs vehicle control ([1]; single PO dose 10 mg/kg, tumors 16 hours post-dose): 96%
- DC50 [2]: 2.3 nM
